Assay results as given in PMC6522473, “The Pseudomonas aeruginosa lectin LecB binds to the exopolysaccharide Psl and stabilizes the biofilm matrix” (Nature Communications, 2019).

Molecular target: T1, LecB (Pseudomonas aeruginosa, UniProt Q9HYN5)
T1 construct: purified LecB overexpressed in P. aeruginosa (lecB from PAO1, pJNLecB); homotetramer of 114 amino acid monomers
Assay: ITC ([…] K, three titrations)
Assay type: binding

T1 sequence (Q9HYN5 entry or part of it): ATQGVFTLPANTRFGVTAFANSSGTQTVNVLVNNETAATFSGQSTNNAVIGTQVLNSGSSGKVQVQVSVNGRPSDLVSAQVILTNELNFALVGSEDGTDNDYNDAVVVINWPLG

Structure (SMILES) | Kd
OC[C@H]1O[C@H](O[C@@H]2C(O)O[C@H](CO)[C@@H](O)[C@@H]2O)[C@@H](O)[C@@H](O)[C@@H]1O (stereo partly drawn) [α-1,2′ mannobiose] | 26.6 ± 2.61 µM
OC[C@H]1O[C@H](O[C@H]2[C@H](O)[C@@H](CO)OC(O)[C@H]2O)[C@@H](O)[C@@H](O)[C@@H]1O (stereo partly drawn) [α-1,3′ mannobiose] | 33.6 ± 7.18 µM
